Experimental data: ChEMBL document CHEMBL1142017, “Structure-activity relationships and sub-type selectivity in an oxabicyclic estrogen receptor alpha/beta agonist scaffold” (Bioorg Med Chem Lett, 2005)

Assays:
[1] = target: T1, Estrogen receptor beta (Homo sapiens, UniProt Q92731)
Description: (§1) In vitro agonist activity for estrogen receptor beta expressed in COS-1 cells

[2] = target: T2, Estrogen receptor (Homo sapiens, UniProt P03372)
T2 sequence (P03372 whole entry): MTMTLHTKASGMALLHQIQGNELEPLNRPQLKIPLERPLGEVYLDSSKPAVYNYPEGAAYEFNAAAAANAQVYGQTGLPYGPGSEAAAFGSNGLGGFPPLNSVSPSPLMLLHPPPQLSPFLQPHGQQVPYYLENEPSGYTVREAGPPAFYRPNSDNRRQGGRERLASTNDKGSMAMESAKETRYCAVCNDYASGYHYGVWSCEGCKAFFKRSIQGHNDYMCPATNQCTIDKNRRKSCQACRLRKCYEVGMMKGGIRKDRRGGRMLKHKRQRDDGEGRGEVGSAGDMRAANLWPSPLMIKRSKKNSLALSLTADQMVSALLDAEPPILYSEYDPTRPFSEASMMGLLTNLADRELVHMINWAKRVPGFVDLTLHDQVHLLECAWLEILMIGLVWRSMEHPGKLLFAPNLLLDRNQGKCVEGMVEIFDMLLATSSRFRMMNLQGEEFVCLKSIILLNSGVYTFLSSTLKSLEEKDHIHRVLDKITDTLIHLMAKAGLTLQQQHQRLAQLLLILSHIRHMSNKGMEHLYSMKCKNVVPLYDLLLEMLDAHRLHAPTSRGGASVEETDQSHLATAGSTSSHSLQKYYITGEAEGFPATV
Description: In vitro agonist activity for estrogen receptor alpha expressed in COS-1 cells

[3] = target: T3, Estrogen receptor (Rattus norvegicus) (UniProt P06211+Q62986); test: Effect on uterine wet weight in ovariectomized female rats; assay type: functional
[4] = target: T1, Estrogen receptor beta; settings: cos-1
Description: as §1

[5] = target: T3, Estrogen receptor (Rattus norvegicus); test: Effect on uterine wet weight in ovariectomized female rats after 30 mg/kg oral gavage dose; assay type: functional, organism-based; design: dose 30 mg/kg

T1 sequence (Q92731 whole entry): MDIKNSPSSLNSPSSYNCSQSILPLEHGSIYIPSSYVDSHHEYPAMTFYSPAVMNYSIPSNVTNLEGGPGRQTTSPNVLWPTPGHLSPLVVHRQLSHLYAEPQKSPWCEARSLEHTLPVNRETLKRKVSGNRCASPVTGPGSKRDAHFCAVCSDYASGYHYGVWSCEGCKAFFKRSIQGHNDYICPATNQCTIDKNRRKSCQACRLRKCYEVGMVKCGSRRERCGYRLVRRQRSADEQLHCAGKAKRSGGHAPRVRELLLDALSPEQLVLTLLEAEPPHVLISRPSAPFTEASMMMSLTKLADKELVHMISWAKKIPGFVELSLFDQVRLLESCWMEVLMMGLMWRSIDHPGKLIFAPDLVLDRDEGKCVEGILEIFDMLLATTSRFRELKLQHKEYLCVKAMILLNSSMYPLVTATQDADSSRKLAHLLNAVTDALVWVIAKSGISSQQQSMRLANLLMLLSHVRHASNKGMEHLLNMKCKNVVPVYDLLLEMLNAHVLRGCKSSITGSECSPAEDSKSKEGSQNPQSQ

Row | Compound | EC50 [1] [nM] | EC50 [2] [nM] | ED50 [3] [mg/kg/day] | EC50 [4] [nM] | ED50 [5] [mg/kg/day]
1 | CC1=CC[C@@]2(CO)CO[C@@H](c3ccc(O)cc3F)[C@@H]1C2 (racemic) | 10 | 39 | – | – | –
2 | CC1=CC[C@@]2(CO)CO[C@@H](c3ccc(O)c(Br)c3)[C@@H]1C2 (racemic) | 485 | 336 | – | – | –
3 | CC1=CC[C@@]2(CO)CO[C@@H](c3ccc(O)cc3O)[C@@H]1C2 (racemic) | 275 | 173 | – | – | –
4 | CC1=CC[C@@]2(CO)CO[C@@H](c3ccc(O)c(F)c3)[C@@H]1C2 (racemic) | 25 | 4.6 | – | – | –
5 | CC1=CC[C@@]2(CO)CO[C@@H](c3ccc(O)cc3Cl)[C@@H]1C2 (stereo in doubt; (+)-25) | 46 | 138 | – | – | –
6 | CC1=CC[C@@H]2C[C@H]1[C@H](c1ccc(O)cc1)OC2(C)C (stereo in doubt; (+)-31) | 418 | 203 | – | – | –
7 | CC1=CC[C@@]2(CO)CO[C@@H](c3ccc(O)c(O)c3)[C@@H]1C2 (racemic) | 3160 | 2410 | – | – | –
8 | CC1=CC[C@@]2(CO)CO[C@@H](c3ccc(O)cc3C)[C@@H]1C2 (racemic) | 79 | 92 | – | – | –
9 | CC1=CC[C@@]2(CO)CO[C@@H](c3ccc(O)c(F)c3)[C@@H]1C2 (stereo in doubt; (-)-28) | 57 | 254 | – | – | –
10 | CC1=CC[C@@]2(CO)CO[C@@H](c3ccc(O)cc3)[C@]1(C)C2 (racemic) | 39 | 203 | – | – | –
11 | CC1=CC[C@]2(O)C[C@H]1[C@H](c1ccc(O)cc1F)OC2(C)C (racemic) | 1.4 | 1.1 | – | – | –
12 | CC1=CC[C@@]2(CO)CO[C@@H](c3cc(C)c(O)c(C)c3)[C@@H]1C2 (racemic) | 2830 | 743 | – | – | –
13 | CC1=CC[C@@]2(CO)CO[C@@H](c3ccc(O)cc3F)[C@@H]1C2 (stereo in doubt; (+)-29) | 180 | 21 | – | – | –
14 | CC1=CC[C@]2(O)C[C@H]1[C@H](c1ccc(O)c(F)c1)OC2(C)C (racemic) | 7.2 | 0.6 | – | – | –
15 | CC1=CC[C@]2(O)C[C@H]1[C@H](c1ccc(O)cc1Cl)OC2(C)C (racemic) | 6 | 1 | – | – | –
16 | CC1=CC[C@@]2(CO)CO[C@@H](c3ccc(O)cc3F)[C@]1(C)C2 (racemic) | 12 | 50 | – | – | –
17 | CC1=CC[C@@]2(CO)CO[C@@H](c3ccc(O)cc3Cl)[C@]1(C)C2 (racemic) | 67 | 43 | – | – | –

Row | Compound | EC50 [1] [nM] | EC50 [2] [nM] | ED50 [3] [mg/kg/day] | EC50 [4] [nM] | ED50 [5] [mg/kg/day]
18 | CC1=CC(C)(C)[C@@]2(O)CO[C@@H](c3ccc(O)cc3Cl)[C@@H]1C2 (racemic) | 25 | 21 | – | – | –
19 | COc1cc([C@@H]2OC[C@]3(CO)CC=C(C)[C@H]2C3)ccc1O (racemic) | 3050 | 1980 | – | – | –
20 | CC1=CC[C@@]2(CO)CO[C@@H](c3ccc(O)c(F)c3)[C@]1(C)C2 (racemic) | 6 | 68 | – | – | –
21 | CC1=CC[C@]2(O)C[C@H]1[C@H](c1ccc(O)cc1)OC2(C)C (racemic) | 9.2 | 1.6 | – | – | –
22 | CC1=CC[C@@]2(CO)CO[C@@H](c3ccc(O)cc3Cl)[C@@H]1C2 (racemic) | 5.3 | 11 | – | – | –
23 | CC1=CC[C@@]2(CO)CO[C@@H](c3ccc(O)c(Cl)c3)[C@@H]1C2 (racemic) | 197 | 36 | – | – | –
24 | CC1=CC[C@@H]2C[C@H]1[C@H](c1ccc(O)c(C)c1)OC2(C)C (stereo in doubt; (+)-32) | 318 | 143 | – | – | –
25 | CC1=CC[C@@]2(CO)CO[C@@H](c3ccc(O)cc3Cl)[C@@H]1C2 (stereo in doubt; (-)-26) [listing 1 of 2 here] | – | – | 3.44 | – | –
26 | CC1=CC[C@@H]2C[C@H]1[C@H](c1ccc(O)c(C)c1)OC2(C)C (stereo in doubt) | – | 218 | – | 318 | –
27 | CC1=CC[C@@]2(CO)CO[C@@H](c3ccc(O)cc3Cl)[C@@H]1C2 (stereo in doubt; (-)-26) [listing 2 of 2 here] | 6.1 | 18 | – | – | –
28 | CC1=CC[C@@]2(CO)CO[C@@H](c3ccc(O)c(C)c3)[C@@H]1C2 (racemic) | 305 | 137 | – | – | –
29 | CC1=CC[C@@]2(O)CO[C@@H](c3ccc(O)cc3)[C@@H]1C2(C)C (racemic) | 24 | 59 | – | – | –
30 | CC1=CC[C@@H]2C[C@H]1[C@H](c1ccc(O)cc1)OC2(C)C (stereo in doubt) | 195 | 211 | – | – | –
31 | CC1=CC[C@@]2(CO)CO[C@@H](c3ccc(O)c(F)c3)[C@@H]1C2 (stereo in doubt; (+)-27) | 40 | 2.6 | – | – | –
32 | CC1=CC(C)(C)[C@@]2(O)CO[C@@H](c3ccc(O)cc3)[C@@H]1C2 (racemic) | 183 | 141 | – | – | –
33 | CC1=CC[C@@]2(CO)CO[C@@H](c3ccc(O)cc3F)[C@@H]1C2 (stereo in doubt; (-)-30) | 3.1 | 19 | – | – | –
34 | C[C@]12CC[C@@H]3c4ccc(OS(=O)(=O)O)cc4CC[C@H]3[C@@H]1CCC2=O | – | – | – | – | 0.16
